Experimental data reported in patent publication US20240067693A1, “POLYPEPTIDES AND USES THEREOF” (MEDIMMUNE LIMITED, priority 2020, published 2024).
Numbered stars: 1 amine (or outer) side, 2 acyl side, 3 side chain; on linkers, the order of the positions; unused ones are H or OH. Bridge positions count the residues as written; N and C are the ends. Square brackets hold non-standard residues; d marks the D form. Side chains are listed from the residue outwards. Peptide text beside a SMILES is read from it. * marks the point of attachment. C18 diacid = O=C(O)CCCCCCCCCCCCCCCCC(=O)*; γGlu = O=C(O)[C@H](CCC(=O)[*:2])N[*:1]; Aib = CC(C)(N)C(=O)O

Tests used:
[1] = molecular target: T1, human amylin receptor (calcitonin receptor co-expressed with receptor activity modifying protein, RAMP3) (hAMYR3) (Homo sapiens, UniProt O60896+P30988); assay: cAMP production in 1321N1 cells with stable recombinant expression of human amylin receptor (hAMYR3); assay type: cell-based; conditions: for Ratio (selectivity hAMYR vs hCTR, ratio of EC50 values at the two receptors): EC50 hCTR / EC50 hAMYR3; for EC50: cAMP, 1321N1 cells, assay buffer with 0.1% BSA, read-out: EC50 (pM) hAMYR3
T1 construct: expressed in transfected cells
T1 sequence (P30988 25-474): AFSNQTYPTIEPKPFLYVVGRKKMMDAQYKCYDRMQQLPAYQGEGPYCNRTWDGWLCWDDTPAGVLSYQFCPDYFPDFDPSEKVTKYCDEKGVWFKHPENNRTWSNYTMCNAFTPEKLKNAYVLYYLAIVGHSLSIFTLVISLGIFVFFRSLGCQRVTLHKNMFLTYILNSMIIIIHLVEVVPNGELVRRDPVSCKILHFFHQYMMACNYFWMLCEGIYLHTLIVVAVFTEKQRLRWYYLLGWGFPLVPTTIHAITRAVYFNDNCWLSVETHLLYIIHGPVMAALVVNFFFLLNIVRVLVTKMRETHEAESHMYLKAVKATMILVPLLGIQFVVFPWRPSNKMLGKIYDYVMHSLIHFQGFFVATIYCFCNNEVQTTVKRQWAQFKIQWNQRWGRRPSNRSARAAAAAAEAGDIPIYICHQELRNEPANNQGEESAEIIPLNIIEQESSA
T1 sequence (O60896 24-148 partner): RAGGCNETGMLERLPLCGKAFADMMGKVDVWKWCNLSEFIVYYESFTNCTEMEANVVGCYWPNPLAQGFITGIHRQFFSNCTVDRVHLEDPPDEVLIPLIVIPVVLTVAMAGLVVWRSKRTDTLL
Method in brief: (§1)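 Thawed cells in HBSS/0.1% BSA/25 mM HEPES pH 7.4 with 0.5 mM IBMX were incubated with peptides 30 min at room temperature; cAMP read by HTRF. EC50 from 4-parameter fit of % activation relative to maximal amylin or calcitonin effect.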

[2] = molecular target: T2, human calcitonin receptor (hCTR) (Homo sapiens, UniProt P30988); assay: cAMP production in 1321N1 cells with stable recombinant expression of human calcitonin receptor (hCTR); assay type: cell-based; conditions: cAMP, 1321N1 cells, assay buffer with 0.1% BSA; read-out: EC50 (pM) hCTR
T2 construct: expressed in transfected cells
T2 sequence (P30988 25-474): T1 sequence (P30988 25-474)
Method in brief: as §1

Structure (SMILES)	Ratio (selectivity hAMYR vs hCTR, ratio of EC50 values at the two receptors) [1]	EC50 [1]	EC50 [2]
CC(C)C[C@H](NC(=O)[C@H](CCCNC(=N)N)NC(=O)[C@H](CCC(N)=O)NC(=O)[C@@H](NC(=O)[C@H](C)NC(=O)[C@@H]1CSSC[C@H](NC(=O)[C@H](CCCCN)NC(=O)[C@@H](N)CCCCNC(=O)CC[C@H](NC(=O)CCCCCCCCCCCCCCCCC(=O)O)C(=O)O)C(=O)N[C@@H](CC(N)=O)C(=O)N[C@@H]([C@@H](C)O)C(=O)N[C@@H](C)C(=O)N[C@@H]([C@@H](C)O)C(=O)N1)[C@@H](C)O)C(=O)N[C@@H](C)C(=O)N[C@@H](CC(N)=O)C(=O)N[C@@H](Cc1ccccc1)C(=O)N[C@@H](CC(C)C)C(=O)N[C@H](C(=O)N[C@@H](Cc1c[nH]cn1)C(=O)N[C@@H](CO)C(=O)N[C@@H](CO)C(=O)N[C@@H](CC(N)=O)C(=O)N[C@@H](CC(N)=O)C(=O)N[C@@H](Cc1ccccc1)C(=O)NCC(=O)N1CCC[C@H]1C(=O)NC(C)(C)C(=O)N[C@@H](CC(C)C)C(=O)N1CCC[C@H]1C(=O)N1CCC[C@H]1C(=O)N[C@H](C(=O)N[C@@H](CC(N)=O)C(=O)N[C@H](C(=O)NCC(=O)N[C@@H](CO)C(=O)N[C@@H](CC(N)=O)C(=O)N[C@H](C(=O)N[C@@H](Cc1ccc(O)cc1)C(N)=O)[C@@H](C)O)C(C)C)[C@@H](C)O)C(C)C [Peptide 106, K(γE-C18diacid)K[CNTATC]ATQRLANFLVHSSNNFGP(Aib)LPPTNVGSNTY-amide] (H-K([γGlu-C18 diacid])KCNTATCATQRLANFLVHSSNNFGP[Aib]LPPTNVGSNTY-NH2; disulfide 3-8; N-terminus assumed)	7	473 pM	3420 pM
CC(C)C[C@H](NC(=O)[C@H](CCCNC(=N)N)NC(=O)[C@H](CCC(N)=O)NC(=O)[C@@H](NC(=O)[C@H](C)NC(=O)[C@@H]1CSSC[C@H](NC(=O)[C@H](CCCCN)NC(=O)[C@@H](N)CCCCNC(=O)CC[C@H](NC(=O)CCCCCCCCCCCCCCCCC(=O)O)C(=O)O)C(=O)N[C@@H](CC(N)=O)C(=O)N[C@@H]([C@@H](C)O)C(=O)N[C@@H](C)C(=O)N[C@@H]([C@@H](C)O)C(=O)N1)[C@@H](C)O)C(=O)N[C@@H](C)C(=O)N[C@@H](CC(N)=O)C(=O)N[C@@H](Cc1ccccc1)C(=O)N[C@@H](CC(C)C)C(=O)N[C@@H](CCCNC(=N)N)C(=O)N[C@@H](Cc1c[nH]cn1)C(=O)N[C@@H](CO)C(=O)N[C@@H](CO)C(=O)N[C@@H](CC(N)=O)C(=O)N[C@@H](CC(N)=O)C(=O)N[C@@H](Cc1ccccc1)C(=O)NCC(=O)N1CCC[C@H]1C(=O)NC(C)(C)C(=O)N[C@@H](CC(C)C)C(=O)N1CCC[C@H]1C(=O)N1CCC[C@H]1C(=O)N[C@H](C(=O)N[C@@H](CC(N)=O)C(=O)N[C@H](C(=O)NCC(=O)N[C@@H](CO)C(=O)N[C@@H](CC(N)=O)C(=O)N[C@H](C(=O)N[C@@H](Cc1ccc(O)cc1)C(N)=O)[C@@H](C)O)C(C)C)[C@@H](C)O [Peptide 107, K(γE-C18diacid)K[CNTATC]ATQRLANFLRHSSNNFGP(Aib)LPPTNVGSNTY-amide] (H-K([γGlu-C18 diacid])KCNTATCATQRLANFLRHSSNNFGP[Aib]LPPTNVGSNTY-NH2; disulfide 3-8; N-terminus assumed)	25	1070 pM	26300 pM
CC[C@H](C)[C@H](NC(=O)[C@@H]1CCCN1C(=O)CNC(=O)[C@H](Cc1ccccc1)NC(=O)[C@H](CC(N)=O)NC(=O)[C@H](CC(N)=O)NC(=O)[C@H](CO)NC(=O)[C@H](CO)NC(=O)[C@H](Cc1c[nH]cn1)NC(=O)[C@@H](NC(=O)[C@H](CC(C)C)NC(=O)[C@H](Cc1ccccc1)NC(=O)[C@H](CC(N)=O)NC(=O)[C@H](C)NC(=O)[C@H](CC(C)C)NC(=O)[C@H](CCCNC(=N)N)NC(=O)[C@H](CCC(N)=O)NC(=O)[C@@H](NC(=O)[C@H](C)NC(=O)[C@@H]1CSSC[C@H](NC(=O)[C@H](CCCCN)NC(=O)[C@@H](N)CCCCNC(=O)CC[C@H](NC(=O)CCCCCCCCCCCCCCCCC(=O)O)C(=O)O)C(=O)N[C@@H](CC(N)=O)C(=O)N[C@@H]([C@@H](C)O)C(=O)N[C@@H](C)C(=O)N[C@@H]([C@@H](C)O)C(=O)N1)[C@@H](C)O)C(C)C)C(=O)NC(C)(C)C(=O)N1CCC[C@H]1C(=O)N1CCC[C@H]1C(=O)N[C@H](C(=O)N[C@@H](CC(N)=O)C(=O)N[C@H](C(=O)NCC(=O)N[C@@H](CO)C(=O)N[C@@H](CC(N)=O)C(=O)N[C@H](C(=O)N[C@@H](Cc1ccc(O)cc1)C(N)=O)[C@@H](C)O)C(C)C)[C@@H](C)O [Peptide 108, K(γE-C18diacid)K[CNTATC]ATQRLANFLVHSSNNFGPI(Aib)PPTNVGSNTY-amide] (H-K([γGlu-C18 diacid])KCNTATCATQRLANFLVHSSNNFGPI[Aib]PPTNVGSNTY-NH2; disulfide 3-8; N-terminus assumed)	8	801 pM	6810 pM

Next, values leading:

Ratio (selectivity hAMYR vs hCTR, ratio of EC50 values at the two receptors) [1]	EC50 [1]	EC50 [2]	Structure (SMILES)
2	82 pM	176 pM	CC[C@H](C)[C@H](NC(=O)[C@@H]1CCCN1C(=O)CNC(=O)[C@H](Cc1ccccc1)NC(=O)C(C)(C)NC(=O)[C@H](CC(N)=O)NC(=O)[C@H](CO)NC(=O)[C@H](CO)NC(=O)[C@H](Cc1c[nH]cn1)NC(=O)[C@@H](NC(=O)[C@H](CC(C)C)NC(=O)[C@H](Cc1ccccc1)NC(=O)[C@H](CC(N)=O)NC(=O)[C@H](C)NC(=O)[C@H](CC(C)C)NC(=O)[C@H](CCCNC(=N)N)NC(=O)[C@H](CCC(N)=O)NC(=O)[C@@H](NC(=O)[C@H](C)NC(=O)[C@@H]1CSSC[C@H](NC(=O)[C@H](CCCCN)NC(=O)[C@@H](N)CCCCNC(=O)CC[C@H](NC(=O)CCCCCCCCCCCCCCCCC(=O)O)C(=O)O)C(=O)N[C@@H](CC(N)=O)C(=O)N[C@@H]([C@@H](C)O)C(=O)N[C@@H](C)C(=O)N[C@@H]([C@@H](C)O)C(=O)N1)[C@@H](C)O)C(C)C)C(=O)N[C@@H](CC(C)C)C(=O)N1CCC[C@H]1C(=O)N1CCC[C@H]1C(=O)N[C@H](C(=O)N[C@@H](CC(N)=O)C(=O)N[C@H](C(=O)NCC(=O)N[C@@H](CO)C(=O)N[C@@H](CC(N)=O)C(=O)N[C@H](C(=O)N[C@@H](Cc1ccc(O)cc1)C(N)=O)[C@@H](C)O)C(C)C)[C@@H](C)O [Peptide 109, K(γE-C18diacid)K[CNTATC]ATQRLANFLVHSSN(Aib)FGPILPPTNVGSNTY-amide] (H-K([γGlu-C18 diacid])KCNTATCATQRLANFLVHSSN[Aib]FGPILPPTNVGSNTY-NH2; disulfide 3-8; N-terminus assumed)
3	204 pM	541 pM	CC[C@H](C)[C@H](NC(=O)[C@@H]1CCCN1C(=O)C(C)(C)NC(=O)[C@H](Cc1ccccc1)NC(=O)[C@H](CC(N)=O)NC(=O)[C@H](CC(N)=O)NC(=O)[C@H](CO)NC(=O)[C@H](CO)NC(=O)[C@H](Cc1c[nH]cn1)NC(=O)[C@@H](NC(=O)[C@H](CC(C)C)NC(=O)[C@H](Cc1ccccc1)NC(=O)[C@H](CC(N)=O)NC(=O)[C@H](C)NC(=O)[C@H](CC(C)C)NC(=O)[C@H](CCCNC(=N)N)NC(=O)[C@H](CCC(N)=O)NC(=O)[C@@H](NC(=O)[C@H](C)NC(=O)[C@@H]1CSSC[C@H](NC(=O)[C@H](CCCCN)NC(=O)[C@@H](N)CCCCNC(=O)CC[C@H](NC(=O)CCCCCCCCCCCCCCCCC(=O)O)C(=O)O)C(=O)N[C@@H](CC(N)=O)C(=O)N[C@@H]([C@@H](C)O)C(=O)N[C@@H](C)C(=O)N[C@@H]([C@@H](C)O)C(=O)N1)[C@@H](C)O)C(C)C)C(=O)N[C@@H](CC(C)C)C(=O)N1CCC[C@H]1C(=O)N1CCC[C@H]1C(=O)N[C@H](C(=O)N[C@@H](CC(N)=O)C(=O)N[C@H](C(=O)NCC(=O)N[C@@H](CO)C(=O)N[C@@H](CC(N)=O)C(=O)N[C@H](C(=O)N[C@@H](Cc1ccc(O)cc1)C(N)=O)[C@@H](C)O)C(C)C)[C@@H](C)O [Peptide 110, K(γE-C18diacid)K[CNTATC]ATQRLANFLVHSSNNF(Aib)PILPPTNVGSNTY-amide] (H-K([γGlu-C18 diacid])KCNTATCATQRLANFLVHSSNNF[Aib]PILPPTNVGSNTY-NH2; disulfide 3-8; N-terminus assumed)
